We go through 4 compounds from ChEMBL document CHEMBL1201862, “PubChem BioAssay data set” (2004).

Activity calls are given as the source filed them. Bounds are passed on as bounds.

The target in assay [1] is T1, Microphthalmia-associated transcription factor (Homo sapiens, UniProt O75030).
T1 sequence (O75030 whole entry): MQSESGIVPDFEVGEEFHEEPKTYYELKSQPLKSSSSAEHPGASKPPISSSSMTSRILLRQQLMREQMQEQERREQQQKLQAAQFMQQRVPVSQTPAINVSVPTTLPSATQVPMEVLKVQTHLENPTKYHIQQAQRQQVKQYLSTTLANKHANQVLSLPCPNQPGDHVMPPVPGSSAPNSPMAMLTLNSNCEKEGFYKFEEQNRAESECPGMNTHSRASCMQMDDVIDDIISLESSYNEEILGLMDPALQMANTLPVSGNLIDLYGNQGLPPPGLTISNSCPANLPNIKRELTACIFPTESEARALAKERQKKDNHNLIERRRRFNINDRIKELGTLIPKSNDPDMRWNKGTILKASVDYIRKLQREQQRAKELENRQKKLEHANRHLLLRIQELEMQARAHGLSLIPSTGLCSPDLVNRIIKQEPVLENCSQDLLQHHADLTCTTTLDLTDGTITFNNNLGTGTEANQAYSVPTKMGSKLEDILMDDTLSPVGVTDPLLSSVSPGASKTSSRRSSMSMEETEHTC
Kind of assay: reducers of TRPM1 reporter luminescence, concentration series – cell-based, SK-MEL-5, cherry-picked, set 3, MITF inhibitor project, dose response (AID 493073).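 Further: SK-MEL-5 melanoma cells with luciferase driven by the MITF target TRPM1 promoter.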 Type of assay: functional.

Assay [2] relates to A-375. The experiment in a line: MITF: Counter assay: A375 proliferation Measured in Cell-Based System Using Plate Reader - 2084-03_Inhibitor_Dose_DryPowder_Activity. [Related pubchem assays (depositor defined):AID488944]. The class given is functional. The note with it: Homo sapiens.
Assay [3] can be described thus: Intein inhibitors as potential Tuberculosis drugs, a cytotoxicity screen. [Related pubchem assays (depositor defined):AID2221, AID2223, AID434968, AID435010, AID449749, AID449750, AID489010]. Type of assay: functional.
Assay [4] concerns the target Paired box protein Pax-8 (Homo sapiens, UniProt Q06710). Kind of assay: PAX8 transcriptional activity inhibition in RMG-I – RMG-I cells, luciferase, cherry-pick, dose response (AID 687027).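 Further: luciferase reporter driven by Pax8 target thyroperoxidase promoter measured by SteadyGlo luminescence.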 Type of assay: functional, cell-based.
For assay [5], the target named is T2, Replicative DNA helicase DnaB (Mycobacterium tuberculosis, UniProt P9WMR3).
T2 sequence (P9WMR3 whole entry): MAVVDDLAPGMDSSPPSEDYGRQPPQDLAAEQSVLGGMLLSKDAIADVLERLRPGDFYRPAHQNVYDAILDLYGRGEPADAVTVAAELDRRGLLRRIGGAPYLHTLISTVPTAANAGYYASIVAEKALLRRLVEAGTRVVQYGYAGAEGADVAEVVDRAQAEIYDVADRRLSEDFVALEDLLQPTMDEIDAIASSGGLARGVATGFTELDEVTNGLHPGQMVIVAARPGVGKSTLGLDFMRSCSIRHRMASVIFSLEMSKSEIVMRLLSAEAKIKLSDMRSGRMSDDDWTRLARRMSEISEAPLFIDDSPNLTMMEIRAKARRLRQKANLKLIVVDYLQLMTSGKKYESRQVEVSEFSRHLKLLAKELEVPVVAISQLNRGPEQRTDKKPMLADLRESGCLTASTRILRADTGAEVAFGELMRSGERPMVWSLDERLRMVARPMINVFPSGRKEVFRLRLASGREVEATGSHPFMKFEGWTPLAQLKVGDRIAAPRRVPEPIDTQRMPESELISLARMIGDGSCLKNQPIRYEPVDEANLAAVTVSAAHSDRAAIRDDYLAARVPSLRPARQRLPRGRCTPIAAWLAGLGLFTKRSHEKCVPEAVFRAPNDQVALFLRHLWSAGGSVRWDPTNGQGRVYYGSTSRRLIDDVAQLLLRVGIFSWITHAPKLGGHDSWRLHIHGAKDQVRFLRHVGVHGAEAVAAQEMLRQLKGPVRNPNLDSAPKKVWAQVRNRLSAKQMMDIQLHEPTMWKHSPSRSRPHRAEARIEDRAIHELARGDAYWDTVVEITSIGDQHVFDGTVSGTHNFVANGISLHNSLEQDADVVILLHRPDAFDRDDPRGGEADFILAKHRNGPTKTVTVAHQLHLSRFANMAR
The experiment in a line: DnaB intein splicing inhibitors, dose response, biochemical, cell-free fluorescence (AID 449749). Type of assay: functional.

Assay [6] in a line: HEK-293T viability loss after treatment – luminescence, T-cell screen hits, cytotoxicity control for TCR NF-kB inhibitor project, dose response (AID 489026).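 Further: cells exposed to compound about 14 hours before the viability readout.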 Type of assay: functional, cell-based.
Assay [7] can be described thus: cells. Type of assay: functional, cell-based.
The nature of assay [8]: loss of viability in HepG2 cells – cell-based, CellTiter-Glo, cherry-picked, cytotoxicity control for Shn3 inhibitor project, dose response (AID 624134). Type of assay: functional.
Assay [9] deals with Leucine-rich repeat serine/threonine-protein kinase 2 (Homo sapiens, UniProt Q5S007). Type of assay: functional.
Chain of Leucine-rich repeat serine/threonine-protein kinase 2 (Q5S007 whole entry): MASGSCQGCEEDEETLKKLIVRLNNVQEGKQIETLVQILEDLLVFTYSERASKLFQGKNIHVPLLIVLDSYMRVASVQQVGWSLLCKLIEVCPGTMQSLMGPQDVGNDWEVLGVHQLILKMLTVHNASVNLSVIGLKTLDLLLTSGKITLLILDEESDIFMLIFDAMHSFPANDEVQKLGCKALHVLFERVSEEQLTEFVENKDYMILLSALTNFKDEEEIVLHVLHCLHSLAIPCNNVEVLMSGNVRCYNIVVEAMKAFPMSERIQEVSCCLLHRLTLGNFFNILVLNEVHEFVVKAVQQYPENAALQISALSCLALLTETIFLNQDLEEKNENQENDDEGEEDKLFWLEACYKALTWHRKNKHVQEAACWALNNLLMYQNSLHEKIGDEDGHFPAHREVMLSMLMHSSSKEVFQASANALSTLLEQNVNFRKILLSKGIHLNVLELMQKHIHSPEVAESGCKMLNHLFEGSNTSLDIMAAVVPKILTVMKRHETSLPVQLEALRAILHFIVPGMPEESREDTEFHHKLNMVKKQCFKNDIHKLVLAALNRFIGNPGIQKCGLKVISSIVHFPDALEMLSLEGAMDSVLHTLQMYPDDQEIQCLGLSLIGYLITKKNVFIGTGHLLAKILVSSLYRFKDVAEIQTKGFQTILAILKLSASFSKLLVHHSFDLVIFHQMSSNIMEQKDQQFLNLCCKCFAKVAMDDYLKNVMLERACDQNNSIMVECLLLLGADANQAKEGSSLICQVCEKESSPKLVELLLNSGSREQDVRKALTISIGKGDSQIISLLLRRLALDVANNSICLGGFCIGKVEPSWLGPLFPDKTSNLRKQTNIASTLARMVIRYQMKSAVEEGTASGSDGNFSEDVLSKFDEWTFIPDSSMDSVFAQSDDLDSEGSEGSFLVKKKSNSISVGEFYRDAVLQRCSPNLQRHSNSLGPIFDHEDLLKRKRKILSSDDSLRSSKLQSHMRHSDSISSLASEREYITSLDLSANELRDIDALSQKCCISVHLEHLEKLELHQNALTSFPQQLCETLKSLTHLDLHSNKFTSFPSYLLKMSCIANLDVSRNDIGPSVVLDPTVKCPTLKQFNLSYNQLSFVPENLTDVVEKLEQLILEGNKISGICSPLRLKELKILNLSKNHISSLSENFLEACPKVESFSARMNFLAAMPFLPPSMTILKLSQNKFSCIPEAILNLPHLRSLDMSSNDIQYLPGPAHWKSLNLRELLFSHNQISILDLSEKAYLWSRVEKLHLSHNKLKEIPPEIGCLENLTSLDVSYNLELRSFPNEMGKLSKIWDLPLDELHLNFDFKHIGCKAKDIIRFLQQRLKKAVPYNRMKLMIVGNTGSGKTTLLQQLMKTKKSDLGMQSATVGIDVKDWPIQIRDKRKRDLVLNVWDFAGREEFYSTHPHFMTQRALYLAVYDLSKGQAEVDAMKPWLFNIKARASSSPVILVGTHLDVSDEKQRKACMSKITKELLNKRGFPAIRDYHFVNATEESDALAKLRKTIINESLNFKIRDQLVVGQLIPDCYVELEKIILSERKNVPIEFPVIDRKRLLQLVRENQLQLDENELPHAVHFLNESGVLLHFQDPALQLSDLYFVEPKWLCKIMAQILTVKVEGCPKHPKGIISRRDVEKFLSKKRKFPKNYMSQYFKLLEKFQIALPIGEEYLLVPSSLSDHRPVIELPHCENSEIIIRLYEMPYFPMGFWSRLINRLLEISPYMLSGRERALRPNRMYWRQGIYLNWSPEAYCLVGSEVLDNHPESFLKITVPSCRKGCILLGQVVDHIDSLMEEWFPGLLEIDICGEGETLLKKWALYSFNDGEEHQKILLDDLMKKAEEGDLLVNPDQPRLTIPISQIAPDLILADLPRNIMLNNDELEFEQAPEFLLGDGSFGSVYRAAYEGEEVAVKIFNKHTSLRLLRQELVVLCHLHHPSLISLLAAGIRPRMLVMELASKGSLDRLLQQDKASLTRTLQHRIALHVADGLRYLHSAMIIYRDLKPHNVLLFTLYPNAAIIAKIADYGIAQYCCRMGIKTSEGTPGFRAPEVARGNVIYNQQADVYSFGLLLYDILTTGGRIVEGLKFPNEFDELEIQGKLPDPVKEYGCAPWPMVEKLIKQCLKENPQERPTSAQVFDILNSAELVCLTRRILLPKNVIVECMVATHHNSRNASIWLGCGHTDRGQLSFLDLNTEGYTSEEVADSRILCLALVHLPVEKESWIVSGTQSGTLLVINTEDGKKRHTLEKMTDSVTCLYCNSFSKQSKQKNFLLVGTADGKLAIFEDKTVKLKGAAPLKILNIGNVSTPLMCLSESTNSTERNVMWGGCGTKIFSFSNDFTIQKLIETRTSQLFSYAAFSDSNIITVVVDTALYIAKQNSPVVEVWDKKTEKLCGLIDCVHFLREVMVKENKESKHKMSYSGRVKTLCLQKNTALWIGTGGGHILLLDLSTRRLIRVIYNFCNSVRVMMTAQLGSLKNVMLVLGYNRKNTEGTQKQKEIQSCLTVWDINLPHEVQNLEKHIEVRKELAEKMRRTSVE
Assay [10] concerns the target Mitogen-activated protein kinase 9 (Homo sapiens, UniProt P45984). Type of assay: functional.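 Further: value from a kinome panel profiling assay, MAPK9 panel entry.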
Assay [11] deals with Insulin-like growth factor 1 receptor (Homo sapiens, UniProt P08069). The experiment in a line: Navigating the Kinome. Panel member name: IGF1R. The class given is functional.
Assay [12] concerns the target Tyrosine-protein kinase receptor TYRO3 (Homo sapiens, UniProt Q06418). Type of assay: functional.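 Further: TYRO3 value obtained as one member of a kinome-wide profiling panel.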
In assay [13] the target is Mitogen-activated protein kinase 8 (Homo sapiens, UniProt P45983). Type of assay: functional.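 Further: value comes from one member of a kinome-wide kinase profiling panel.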
For assay [14], the target named is Glycogen synthase kinase-3 beta (Homo sapiens, UniProt P49841). The class given is functional.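 Further: value comes from a broad kinome profiling panel, with GSK3B as the panel member.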
The target of assay [15] is BDNF/NT-3 growth factors receptor (Homo sapiens, UniProt Q16620). Type of assay: functional.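 Further: NTRK2 measured as one member of a broad kinome-wide kinase profiling panel.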
Assay [16] has as its target Mast/stem cell growth factor receptor Kit (Homo sapiens, UniProt P10721). The class given is functional.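 Further: KIT entry within a kinase panel assay.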
The target of assay [17] is Rho-associated protein kinase 1 (Homo sapiens, UniProt Q13464). The class given is functional.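 Further: measured within a broad kinome-wide panel profiling many kinases.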
Assay [18] deals with Serine/threonine-protein kinase pim-1 (Homo sapiens, UniProt P11309). Type of assay: functional.
In assay [19] the target is Macrophage colony-stimulating factor 1 receptor (Homo sapiens, UniProt P07333). The class given is functional.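 Further: value comes from the Navigating the Kinome screening panel, CSF1R member.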
Chain of Macrophage colony-stimulating factor 1 receptor (P07333 whole entry): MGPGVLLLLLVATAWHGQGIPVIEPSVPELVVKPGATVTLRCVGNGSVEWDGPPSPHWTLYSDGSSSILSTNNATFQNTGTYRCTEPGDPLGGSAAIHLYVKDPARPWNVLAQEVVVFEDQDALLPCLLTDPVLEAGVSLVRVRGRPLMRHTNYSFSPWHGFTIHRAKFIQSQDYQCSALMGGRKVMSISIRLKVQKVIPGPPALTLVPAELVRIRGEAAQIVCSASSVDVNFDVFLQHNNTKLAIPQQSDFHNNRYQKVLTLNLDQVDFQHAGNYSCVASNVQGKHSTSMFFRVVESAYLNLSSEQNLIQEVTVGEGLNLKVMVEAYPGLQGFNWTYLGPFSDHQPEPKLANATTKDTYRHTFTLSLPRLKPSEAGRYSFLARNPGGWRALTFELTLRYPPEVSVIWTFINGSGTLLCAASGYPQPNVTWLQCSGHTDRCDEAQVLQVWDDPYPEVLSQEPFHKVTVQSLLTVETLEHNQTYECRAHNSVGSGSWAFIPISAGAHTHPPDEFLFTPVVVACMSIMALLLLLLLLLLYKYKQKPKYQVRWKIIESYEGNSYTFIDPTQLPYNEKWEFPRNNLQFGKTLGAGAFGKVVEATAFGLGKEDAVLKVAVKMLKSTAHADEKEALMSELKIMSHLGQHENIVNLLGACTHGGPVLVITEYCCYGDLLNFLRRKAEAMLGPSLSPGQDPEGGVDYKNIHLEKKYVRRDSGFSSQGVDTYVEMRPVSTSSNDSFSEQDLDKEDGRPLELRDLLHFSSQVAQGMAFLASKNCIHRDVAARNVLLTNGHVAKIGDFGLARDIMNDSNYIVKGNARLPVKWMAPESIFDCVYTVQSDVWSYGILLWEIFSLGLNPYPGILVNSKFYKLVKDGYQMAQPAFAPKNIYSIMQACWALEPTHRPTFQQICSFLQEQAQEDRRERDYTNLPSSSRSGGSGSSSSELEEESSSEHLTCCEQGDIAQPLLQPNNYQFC
The target in assay [20] is Death-associated protein kinase 3 (Homo sapiens, UniProt O43293). The class given is functional.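 Further: measured as one member of a kinome-wide profiling panel.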
The target of assay [21] is Hepatocyte growth factor receptor (Homo sapiens, UniProt P08581). The class given is functional.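 Further: kinase panel profiling across the kinome, with MET as the panel member.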
The target in assay [22] is Tyrosine-protein kinase Lck (Homo sapiens, UniProt P06239). The class given is functional.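 Further: lck was assayed as one member of a kinase panel.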
In assay [23] the target is 5'-AMP-activated protein kinase catalytic subunit alpha-1 (Homo sapiens, UniProt Q13131). Type of assay: functional.
Chain of 5'-AMP-activated protein kinase catalytic subunit alpha-1 (Q13131 whole entry): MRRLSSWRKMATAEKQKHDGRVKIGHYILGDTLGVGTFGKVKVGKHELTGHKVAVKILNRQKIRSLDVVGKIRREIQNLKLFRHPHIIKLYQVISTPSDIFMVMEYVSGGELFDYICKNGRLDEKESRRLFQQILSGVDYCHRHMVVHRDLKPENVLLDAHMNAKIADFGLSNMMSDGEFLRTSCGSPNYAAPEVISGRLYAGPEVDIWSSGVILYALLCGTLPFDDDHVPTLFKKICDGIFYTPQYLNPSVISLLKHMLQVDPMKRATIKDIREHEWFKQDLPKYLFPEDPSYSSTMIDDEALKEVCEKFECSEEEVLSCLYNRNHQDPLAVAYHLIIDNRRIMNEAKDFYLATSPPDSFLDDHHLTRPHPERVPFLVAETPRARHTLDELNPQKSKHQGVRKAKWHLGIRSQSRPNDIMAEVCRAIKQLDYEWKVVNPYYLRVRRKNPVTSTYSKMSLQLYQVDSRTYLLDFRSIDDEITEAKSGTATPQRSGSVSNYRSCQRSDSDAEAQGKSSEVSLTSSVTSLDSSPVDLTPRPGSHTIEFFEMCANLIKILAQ
Assay [24] has as its target Dual specificity protein kinase CLK4 (Homo sapiens, UniProt Q9HAZ1). Type of assay: functional.
The target of assay [25] is High affinity nerve growth factor receptor (Homo sapiens, UniProt P04629). The class given is functional.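 Further: NTRK1 tested as one member of a kinome-wide profiling panel.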
Chain of High affinity nerve growth factor receptor (P04629 whole entry): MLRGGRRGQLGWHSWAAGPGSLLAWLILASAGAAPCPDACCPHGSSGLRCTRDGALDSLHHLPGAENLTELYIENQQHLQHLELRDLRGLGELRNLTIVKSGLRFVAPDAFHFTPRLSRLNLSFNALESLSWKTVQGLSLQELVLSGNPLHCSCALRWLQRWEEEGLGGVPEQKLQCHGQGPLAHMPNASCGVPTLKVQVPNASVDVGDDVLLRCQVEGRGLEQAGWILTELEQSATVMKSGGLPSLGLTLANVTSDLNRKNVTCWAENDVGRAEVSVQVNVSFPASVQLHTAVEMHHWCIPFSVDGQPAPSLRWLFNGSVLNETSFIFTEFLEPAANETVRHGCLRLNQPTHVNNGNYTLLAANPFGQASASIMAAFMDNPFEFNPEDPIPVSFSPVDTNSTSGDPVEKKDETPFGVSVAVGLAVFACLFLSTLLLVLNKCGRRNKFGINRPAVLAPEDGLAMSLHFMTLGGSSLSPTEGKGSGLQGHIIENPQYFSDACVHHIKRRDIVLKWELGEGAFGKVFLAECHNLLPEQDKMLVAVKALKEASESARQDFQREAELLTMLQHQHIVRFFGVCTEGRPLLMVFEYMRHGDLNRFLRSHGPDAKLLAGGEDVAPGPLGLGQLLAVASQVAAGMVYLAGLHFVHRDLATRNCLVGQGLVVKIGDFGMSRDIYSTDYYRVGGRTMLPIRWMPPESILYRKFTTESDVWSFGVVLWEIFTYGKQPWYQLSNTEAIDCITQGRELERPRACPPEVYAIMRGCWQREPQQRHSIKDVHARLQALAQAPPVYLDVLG
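Wherever CC50 is given: cells exposed to compound for 72 hours before luminescence readout.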

For `CCc1cc[n+](C2=C([N-]S(=O)(=O)c3cccs3)C(=O)c3ccccc3C2=O)cc1`, the AC50 in assay [1] was 1150 nM (active); in assay [2], 35400 nM (active).

`O=C(NC1=C(NC2CCS(=O)(=O)C2)C(=O)c2ccccc2C1=O)c1ccccc1` (stereo not given): the CC50 in [3] is 5150 nM (active). For the same compound, the AC50 is 6400 nM (active) in assay [4] and 816 nM (active) in [5].

Take `CCCC(=O)NC(c1ccc(N(C)C)cc1)c1ccc2cccnc2c1O` (stereo not given): in [6], the IC50 is > 80000 nM (inactive). For the same compound, in assay [7], the EC50 was 4760 nM (active). Also, the AC50 in assay [8] was 2090 nM (active).

As for `O=C1NC(=O)C(c2c[nH]c3ccccc23)=C1c1nc(N2CCNCC2)nc2ccccc12`, the inhibition constant (Ki) in assay [9] was 398 nM (active); in assay [10], > 3980 nM (inactive); in [11], > 2510 nM (inactive); in assay [12], > 2000 nM (inactive); in [13], > 5010 nM (inactive); in assay [14], > 3980 nM (inactive). Moreover, the Ki is > 3980 nM (inactive) in [15]; > 6310 nM (inactive) in [16]; > 2000 nM (inactive) in assay [17]; 100 nM (active) in assay [18]; > 2510 nM (inactive) in assay [19]; 631 nM (active) in assay [20]. Moreover, the Ki in assay [21] was 398 nM (active); in assay [22], > 6310 nM (inactive); in assay [23], 200 nM (active); in [24], > 1580 nM (inactive); in assay [25], 2510 nM (active).
